From US11103488B2, “Methods of treating autoimmune, respiratory and inflammatory disorders by inhalation of roflumilast N-oxide” (Incozen Therapeutics Pvt. Ltd., priority 2013, dated 2021)

Tests used:
[1] = test system: macrophage infiltration; test: Acute cigarette smoke induced cell infiltration, macrophages; format: in vivo, female Balb/c mice; conditions: for Percent inhibition in macrophage infiltration: intranasal, day 1 to day 4
Protocol: (§1) Animals were acclimatized for seven days prior to the start of the experiment. The animals were randomly distributed to various groups based on their body weight. For oral administration of roflumilast and for intranasal administration of roflumilast N-oxide, roflumilast or roflumilast N-oxide were prepared as a suspension in a suitable vehicle. On day 1, mice were administered roflumilast N-oxide or roflumilast and after 1 hour, the animals were placed in a whole body exposure box. On day 1 and day 2, the mice were exposed to the mainstream smoke of 6 cigarettes, and 8 cigarettes on day 3 and day 4. Exposure to the smoke of each cigarette lasted for 10 minutes (cigarettes were completely burned in the first two minutes and followed by an air flow with animal ventilator, then 20 minutes exposure to fresh room air). After every second cigarette an additional break of 20 minutes with exposure to fresh room air was conducted. Control animals were exposed to room air chamber. From day 1 to day 4, the animals were administered roflumilast N-oxide or roflumilast. On day 5, 24 hours after the last cigarette smoke (CS) exposure, the animals were exsanguinated under anaesthesia, the trachea were cannulated and the lungs were lavaged with 0.5-ml aliquots of heparinised PBS (1 unit/ml) four times through tracheal cannula (total volume 2 ml). Bronchioalveolar (BAL) collected was stored at 2-8° C. until assayed for total cell and differential leukocyte count. BAL fluid was centrifuged (500×g for 10 minutes) and the resulting cell pellet was resuspended in 0.5 ml of heparinised saline. The total number of white blood cells was determined in BAL fluid and adjusted to 1×10^6 cell/ml. Differential cell count was calculated manually by diff-quick staining. Forty microliters of the cell suspension was centrifuged using cytospin 3 to prepare a cell smear. The cell smear was stained with a blood staining solution for differentiation and microscopically observed to identify cell type according to their morphological characteristics. The number of each cell type among 300 white blood cells in the cell smear were determined and expressed as a percentage, and the number of neutrophils and macrophages in each BAL fluid were calculated.
(§2) Roflumilast and roflumilast N-oxide as a suspension in polysorbate 80 (1% v/v) and methyl cellulose (MC) (0.5% w/v) were used for oral and intranasal administration respectively.

[2] = Lung microsome metabolic stability, dog; format: in vitro ADME; conditions: dog lung microsomes, 1 μM test item, 60 minutes, NADPH
Protocol: (§3) Metabolic stability studies were conducted using rat, dog and human lung microsomes. The protocol for the studies with rat, dog, and human lung microsomes (from Xenotech, USA) is provided below.
(§4) 0.4 mg protein was preincubated with 2 mM NADPH (cofactor) in phosphate buffer (pH˜7.4) for 15 minutes at […] and then added with 1 μM test item and incubated further for 60 minutes in triplicate. The reaction mixture was terminated with methanol containing an internal standard and centrifuged further to analyze the test item remaining in the supernatant by LC-MS/MS. The percent parent compound remaining was calculated in comparison with similar samples terminated at 0 minutes.

[3] = Particle size distribution after micronization (Alpine Spiral Jet Mill); format: physicochemical; conditions: micronized
Text: Laser diffraction measurement of particle size can use a dry method (wherein a suspension of the compound/salt in an airflow crosses the laser beam) or a wet method (wherein a suspension of the compound/salt in a liquid dispersing medium, such as isooctane (e.g. if compound is soluble in isooctane) or 0.1% Tween 80 in water, crosses the laser beam). With laser diffraction, particle size may be measured, for example, with a Malvern Mastersizer or Sympatec apparatus. For example, particle size measurement and/or analysis by laser diffraction can use any or all of (preferably all of) the following: a Malvern Mastersizer longbed version, a dispersing medium of 0.1% Tween 80 in water, a stir rate of ca. 1500 rpm, ca. 3 mins sonification prior to final dispersion and analysis, a 300 RF (Reverse Fourier) lens, and/or the Fraunhofer calculation with Malvern software. Unless specified otherwise, all d50 and d90 measurements are measured by laser diffraction using a wet method.
Provided below is an exemplary method used for micronization of roflumilast N-Oxide using an Alpine Spiral Jet Mill (HOSOKAWA). The process involved the following steps • 15 gm of Roflumilast N-oxide was weighed. • Main knob for compressed air supply was opened. • Adjusted venture pressure at 6.0 bar and ring pressure at 0.5 bar. • Roflumilast N-oxide was added at a feed rate of ˜200 mg/min manually through the hopper. • After completion of micronization, main air supply knob was turned off and micronized roflumilast N-oxide was collected

[4] = Lung microsome metabolic stability, human; format: in vitro ADME; conditions: 1 μM test item, 60 minutes, NADPH
Protocol: as §3, §4

[5] = test system: neutrophil infiltration; test: Acute cigarette smoke induced cell infiltration, neutrophils; format: in vivo, female Balb/c mice; conditions: for Percent inhibition in neutrophil infiltration: intranasal, day 1 to day 4
Protocol: as §1, §2

**Q.** For `O=C(Nc1c(Cl)c[n+]([O-])cc1Cl)c1ccc(OC(F)F)c(OCC2CC2)c1` [Roflumilast N-oxide], which ED50 ([1]; Mus musculus, Macrophage, inhaled or nasal, intranasal administration, read-out: 50% inhibition (ED50) dose, macrophage infiltration) is on record?
**A.** The ED50 was 0.049 mg/kg.

**Q.** And the “Percent inhibition in macrophage infiltration” value ([1]; 0.003 mg/kg)?
**A.** Its value is 50.68%.

**Q.** And the “Percent inhibition in macrophage infiltration” value ([1]; 0.03 mg/kg)?
**A.** The value was 55.10%.

**Q.** And the “Percent inhibition in macrophage infiltration” value ([1]; 0.3 mg/kg)?
**A.** Its value is 62.79%.

**Q.** And the “Percent inhibition in macrophage infiltration” value ([1]; 3 mg/kg)?
**A.** Its value is 63.35%.

**Q.** And the “Percent Parent Compound Remaining, Dog” value [2]?
**A.** Its value is 98.3%.

**Q.** And the “Particle Size Distribution (PSD), D10” value [3]?
**A.** Its value is 0.777 μm.

**Q.** What about the “Particle Size Distribution (PSD), D50” value [3] of the same compound?
**A.** Its value is 1.564 μm.

**Q.** What about the “Particle Size Distribution (PSD), D90” value [3] of the same compound?
**A.** The value was 3.021 μm.

**Q.** And the “Percent Parent Compound Remaining, Human Non Smoker” value ([4]; human non smoker lung microsomes)?
**A.** The value was 91.5%.

**Q.** And the “Percent Parent Compound Remaining, Human Smoker” value ([4]; human smoker lung microsomes)?
**A.** Its value is 99.3%.

**Q.** What about the ED50 ([5]; Mus musculus, Neutrophil, inhaled or nasal, intranasal administration, read-out: 50% inhibition (ED50) dose, neutrophil infiltration) of the same compound?
**A.** Its ED50 is 0.038 mg/kg.

**Q.** And the “Percent inhibition in neutrophil infiltration” value ([5]; 0.003 mg/kg)?
**A.** Its value is 26.60%.

**Q.** What about the “Percent inhibition in neutrophil infiltration” value ([5]; 0.03 mg/kg) of the same compound?
**A.** Its value is 59.28%.

**Q.** And the “Percent inhibition in neutrophil infiltration” value ([5]; 0.3 mg/kg)?
**A.** The value was 66.49%.

**Q.** What about the “Percent inhibition in neutrophil infiltration” value ([5]; 3 mg/kg) of the same compound?
**A.** The value was 72.08%.
